≈ marks a conversion by molar mass, not a printed value. Calls of active or inactive are those of the source. The rule behind the calls is not given here.
Key:
Trypanosoma cruzi [1] = assay: Antiprotozoal activity against Trypanosoma cruzi epimastigotes; type: functional, organism-based
Trypanosoma cruzi [2] = assay: Antiprotozoal activity against Trypanosoma cruzi amastigotes; type: functional, organism-based
Trypanosoma cruzi [3] = assay: Disruption of calcium homeostasis in Trypanosoma cruzi; type: functional, organism-based
[4] = molecular target: lanosterol synthase / oxidosqualene cyclase (Homo sapiens) (UniProt P48449); assay: Inhibitory activity against oxidosqualene cyclase
Sequence of lanosterol synthase / oxidosqualene cyclase (Homo sapiens) (P48449 whole entry, looked up): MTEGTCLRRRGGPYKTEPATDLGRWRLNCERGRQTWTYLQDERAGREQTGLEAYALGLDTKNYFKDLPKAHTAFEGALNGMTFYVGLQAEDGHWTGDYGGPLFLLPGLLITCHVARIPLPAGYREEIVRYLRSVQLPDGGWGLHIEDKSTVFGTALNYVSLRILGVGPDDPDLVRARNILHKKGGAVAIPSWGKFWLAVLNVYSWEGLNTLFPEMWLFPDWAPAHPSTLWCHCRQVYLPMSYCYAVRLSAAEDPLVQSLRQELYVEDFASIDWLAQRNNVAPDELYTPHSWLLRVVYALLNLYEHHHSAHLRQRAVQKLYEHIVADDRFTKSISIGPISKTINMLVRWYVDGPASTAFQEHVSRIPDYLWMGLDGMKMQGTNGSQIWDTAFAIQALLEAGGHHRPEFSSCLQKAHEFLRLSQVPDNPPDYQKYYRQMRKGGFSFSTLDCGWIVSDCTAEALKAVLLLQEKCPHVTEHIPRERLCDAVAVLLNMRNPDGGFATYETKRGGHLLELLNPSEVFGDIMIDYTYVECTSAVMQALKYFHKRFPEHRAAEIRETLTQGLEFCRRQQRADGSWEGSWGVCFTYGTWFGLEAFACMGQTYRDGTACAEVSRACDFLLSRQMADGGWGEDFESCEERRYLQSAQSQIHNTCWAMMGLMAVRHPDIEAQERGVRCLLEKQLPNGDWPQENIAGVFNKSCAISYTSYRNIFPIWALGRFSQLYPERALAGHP

[5] = molecular target: T1, Farnesyl diphosphate synthase (Trypanosoma cruzi) (UniProt Q8WS26); assay: Inhibitory activity against recombinant farnesyl diphosphate synthase at 50 uM
T1 sequence (whole entry): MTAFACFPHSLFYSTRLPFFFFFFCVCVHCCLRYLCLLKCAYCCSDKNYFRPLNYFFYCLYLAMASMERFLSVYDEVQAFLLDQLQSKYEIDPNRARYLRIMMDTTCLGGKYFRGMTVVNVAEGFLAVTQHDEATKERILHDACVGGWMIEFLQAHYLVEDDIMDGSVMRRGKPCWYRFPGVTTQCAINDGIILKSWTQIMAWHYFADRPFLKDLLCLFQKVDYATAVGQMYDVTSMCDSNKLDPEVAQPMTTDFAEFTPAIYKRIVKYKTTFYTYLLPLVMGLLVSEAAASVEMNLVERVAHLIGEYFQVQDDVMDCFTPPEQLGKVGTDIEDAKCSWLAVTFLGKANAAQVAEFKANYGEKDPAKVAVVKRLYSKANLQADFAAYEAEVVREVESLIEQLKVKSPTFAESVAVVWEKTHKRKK

Trypanosoma cruzi [6] = assay: Ability to block ergosterol biosynthesis in Trypanosoma cruzi; type: functional, organism-based

CC[C@@H]([C@H](C)O)n1ncn(-c2ccc(N3CCN(c4ccc(OC[C@@H]5CO[C@@](Cn6cncn6)(c6ccc(F)cc6F)C5)cc4)CC3)cc2)c1=O [POSACONAZOLE]
IC50 (Trypanosoma cruzi [1]): 14 nM
MIC (Trypanosoma cruzi [1]): 0.02 µM (≈ 0.014 µg/mL)
IC50 (Trypanosoma cruzi [2]): 0.25 nM
MIC (Trypanosoma cruzi [2]): 0.003 µM (≈ 0.0021 µg/mL)
Activity (Trypanosoma cruzi [3]): Active

CCCCc1oc2ccccc2c1C(=O)c1cc(I)c(OCCN(CC)CC)c(I)c1 [AMIODARONE]
IC50 [4]: Active
inhibition [5]: inactive
MIC (Trypanosoma cruzi [1]): 20 µM (≈ 12.9 µg/mL)
Activity (Trypanosoma cruzi [6]): Active
MIC (Trypanosoma cruzi [2]): 8 µM (≈ 5.16 µg/mL)
Activity (Trypanosoma cruzi [3]): Active

Source: ChEMBL document CHEMBL1149382 (J Med Chem, 2006)
